Tested on: rats
Assay: In vivo response of rats (dP/dt, contractility of the heart) to Lopressor, dobutamine and Dob/Met
Text: FIG. 2 presents empirical data of the in vivo response of rats to Lopressor® (the brand name for metoprolol used by Novartis Pharmaceuticals Corporation), dobutamine and the dobutamine/metoprolol specific combination ratio (Dob/Met);
The Lopressor® acts much like an inverse agonist or negative antagonist in that it produces a steep decrease in the animals' dP/dt, which is a measure of the contractility of the heart. Although in this experimental context metoprolol may be inhibiting the sympathetic tone of these animals due to the production of their endogenous catacholamines, it functions much like an inverse agonist or negative antagonist. The data is plotted as the dP/dt response versus the dosages of the drugs or combination (dobutamine with metoprolol, Dob/Met). The average beginning baseline response was about 7400 mmHg/sec. From this baseline, the Lopressor® decreased dP/dt to below 2000. For the agonist, dobutamine, the average response for the rats labeled 8-11 are plotted with the unfilled circles. At doses below about 50 micrograms/kg/min, the responses rise to a peak value of about 11000 mmHg/sec, but at further dosages these values decline to below 4000 mmHg/sec.
Examining the responses of metoprolol (Lopressor®) and dobutamine alone, one might think that in combination they would produce a more profound decline in the response to well below 2000 mmHg/sec. […] However, this method can predict these behaviors and is useful in determining other specific ratio combinations that produce a range of desirable responses in physiological systems.

Structure (SMILES) | dP/dt (contractility of the heart), decreased value (rats, in vivo, average beginning baseline about 7400 mmHg/sec, four individual rats) | dP/dt at further dosages (decline after peak) (rats 8-11, average response, doses above about 50 micrograms/kg/min) | dP/dt peak value (rats 8-11, average response, doses below about 50 micrograms/kg/min, baseline about 7400 mmHg/sec)
COCCc1ccc(OCC(O)CNC(C)C)cc1 (stereo not drawn) [Lopressor, metoprolol] | below 2000 mmHg/sec |  | 
CC(CCc1ccc(O)cc1)NCCc1ccc(O)c(O)c1 (stereo not drawn) [dobutamine] |  | below 4000 mmHg/sec | about 11000 mmHg/sec
